Assay results: PubChem BioAssay (NCI)
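Each compound was tested at five concentrations against cells in 96-well plates for 48 hours. At the TGI there is no net growth.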

Assays:
Assay in all cases: NCI-60 cell line screen, 48 h
786-0 renal = test system: 786-0 renal
A498 renal = test system: A498 renal
A549 NSCLC = test system: A549 NSCLC
ACHN renal = test system: ACHN renal
CAKI-1 renal = test system: CAKI-1 renal
CCRF-CEM leukemia = test system: CCRF-CEM leukemia
COLO 205 colon = test system: COLO 205 colon
DLD-1 colon = test system: DLD-1 colon
DMS 114 small cell lung = test system: DMS 114 small cell lung
DMS 273 small cell lung = test system: DMS 273 small cell lung
HCC-2998 colon = test system: HCC-2998 colon
HCT-116 colon = test system: HCT-116 colon
HCT-15 colon = test system: HCT-15 colon
HL-60(TB) leukemia = test system: HL-60(TB) leukemia
HOP-18 NSCLC = test system: HOP-18 NSCLC
HOP-62 NSCLC = test system: HOP-62 NSCLC
HOP-92 NSCLC = test system: HOP-92 NSCLC
HT29 colon = test system: HT29 colon
IGROV1 ovarian = test system: IGROV1 ovarian
K-562 leukemia = test system: K-562 leukemia
KM12 colon = test system: KM12 colon
KM20L2 colon = test system: KM20L2 colon
LOX IMVI melanoma = test system: LOX IMVI melanoma
M14 melanoma = test system: M14 melanoma
M19-MEL melanoma = test system: M19-MEL melanoma
MALME-3M melanoma = test system: MALME-3M melanoma
NCI-H226 lung = test system: NCI-H226 lung
NCI-H23 lung = test system: NCI-H23 lung
NCI-H460 lung = test system: NCI-H460 lung
NCI-H522 lung = test system: NCI-H522 lung
OVCAR-3 ovarian = test system: OVCAR-3 ovarian
OVCAR-4 ovarian = test system: OVCAR-4 ovarian
OVCAR-5 ovarian = test system: OVCAR-5 ovarian
OVCAR-8 ovarian = test system: OVCAR-8 ovarian
SF-268 CNS = test system: SF-268 CNS
SF-295 CNS = test system: SF-295 CNS
SF-539 CNS = test system: SF-539 CNS
SK-MEL-2 melanoma = test system: SK-MEL-2 melanoma
SK-MEL-28 melanoma = test system: SK-MEL-28 melanoma
SK-MEL-5 melanoma = test system: SK-MEL-5 melanoma
SK-OV-3 ovarian = test system: SK-OV-3 ovarian
SN12C renal = test system: SN12C renal
SNB-19 CNS = test system: SNB-19 CNS
SNB-75 CNS = test system: SNB-75 CNS
SNB-78 CNS = test system: SNB-78 CNS
SR leukemia = test system: SR leukemia
SW-620 colon = test system: SW-620 colon
TK-10 renal = test system: TK-10 renal
U251 CNS = test system: U251 CNS
UACC-257 melanoma = test system: UACC-257 melanoma
UACC-62 melanoma = test system: UACC-62 melanoma
XF 498 CNS = test system: XF 498 CNS
EKVX NSCLC = test system: EKVX NSCLC
LXFL 529 NSCLC = test system: LXFL 529 NSCLC
MOLT-4 leukemia = test system: MOLT-4 leukemia
UO-31 renal = test system: UO-31 renal

For Clc1ccc(C[P+](c2ccccc2)(c2ccccc2)c2ccccc2)cc1Cl, the TGI (786-0 renal) was 17 µM, the TGI (A498 renal) was 27 µM and the TGI (A549 NSCLC) was 19.9 µM. The TGI (ACHN renal) was 31.2 µM, the TGI (CAKI-1 renal) was 11 µM and the TGI (CCRF-CEM leukemia) was 28.3 µM. It also gave a TGI (COLO 205 colon) of 2.95 µM, a TGI (DLD-1 colon) of 21.5 µM and a TGI (DMS 114 small cell lung) of 5.95 µM. It also gave a TGI (DMS 273 small cell lung) of 7.58 µM, a TGI (HCC-2998 colon) of 11.2 µM and a TGI (HCT-116 colon) of 10.8 µM. For the same molecule, the TGI (HCT-15 colon) was 44.5 µM, the TGI (HL-60(TB) leukemia) was 14.9 µM and the TGI (HOP-18 NSCLC) was 11 µM. The TGI (HOP-62 NSCLC) was 21.2 µM, the TGI (HOP-92 NSCLC) was 6.02 µM and the TGI (HT29 colon) was 11.9 µM. The TGI (IGROV1 ovarian) was 14.6 µM, the TGI (K-562 leukemia) was over 100 µM and the TGI (KM12 colon) was 11.3 µM. For the same molecule, the TGI (KM20L2 colon) was 13.7 µM, the TGI (LOX IMVI melanoma) was 11.7 µM and the TGI (M14 melanoma) was 12.5 µM. It also gave a TGI (M19-MEL melanoma) of 5.32 µM, a TGI (MALME-3M melanoma) of 7.8 µM and a TGI (NCI-H226 lung) of 13.1 µM. The TGI (NCI-H23 lung) was 10.4 µM, the TGI (NCI-H460 lung) was 12.8 µM and the TGI (NCI-H522 lung) was 10.3 µM. For the same molecule, the TGI (OVCAR-3 ovarian) was 6.74 µM, the TGI (OVCAR-4 ovarian) was 19.5 µM and the TGI (OVCAR-5 ovarian) was 19.2 µM. The TGI (OVCAR-8 ovarian) was 12.4 µM, the TGI (SF-268 CNS) was 11.3 µM and the TGI (SF-295 CNS) was 22.2 µM. For the same molecule, the TGI (SF-539 CNS) was 14.5 µM, the TGI (SK-MEL-2 melanoma) was 6.4 µM and the TGI (SK-MEL-28 melanoma) was 11.4 µM. The TGI (SK-MEL-5 melanoma) was 2.78 µM, the TGI (SK-OV-3 ovarian) was 20.8 µM and the TGI (SN12C renal) was 15.3 µM. The TGI (SNB-19 CNS) was 10.6 µM, the TGI (SNB-75 CNS) was 5.1 µM and the TGI (SNB-78 CNS) was 42.8 µM. The TGI (SR leukemia) was over 100 µM, the TGI (SW-620 colon) was 12.7 µM and the TGI (TK-10 renal) was 17.6 µM. It also gave a TGI (U251 CNS) of 10.6 µM, a TGI (UACC-257 melanoma) of 8.32 µM and a TGI (UACC-62 melanoma) of 9.33 µM. For the same molecule, the TGI (XF 498 CNS) was 3.24 µM.
CCn1c2ccccc2c2c(-c3ccccc3)cc3c(c21)C(=O)N(c1ccccc1)C3=O was tested, and the TGI (786-0 renal) was over 100 µM, the TGI (A498 renal) was over 100 µM and the TGI (A549 NSCLC) was over 100 µM. For the same molecule, the TGI (ACHN renal) was over 100 µM, the TGI (CAKI-1 renal) was over 100 µM and the TGI (CCRF-CEM leukemia) was over 100 µM. For the same molecule, the TGI (COLO 205 colon) was over 100 µM, the TGI (DLD-1 colon) was over 100 µM and the TGI (DMS 114 small cell lung) was over 100 µM. For the same molecule, the TGI (DMS 273 small cell lung) was over 100 µM, the TGI (EKVX NSCLC) was over 100 µM and the TGI (HCC-2998 colon) was over 100 µM. The TGI (HCT-116 colon) was over 100 µM, the TGI (HCT-15 colon) was over 100 µM and the TGI (HL-60(TB) leukemia) was over 100 µM. The TGI (HOP-92 NSCLC) was 90.5 µM, the TGI (IGROV1 ovarian) was over 100 µM and the TGI (K-562 leukemia) was over 100 µM. For the same molecule, the TGI (KM12 colon) was over 100 µM, the TGI (KM20L2 colon) was over 100 µM and the TGI (LOX IMVI melanoma) was over 100 µM. It also gave a TGI (LXFL 529 NSCLC) of over 100 µM, a TGI (M14 melanoma) of over 100 µM and a TGI (M19-MEL melanoma) of over 100 µM. It also gave a TGI (MALME-3M melanoma) of over 100 µM, a TGI (MOLT-4 leukemia) of over 100 µM and a TGI (NCI-H226 lung) of over 100 µM. For the same molecule, the TGI (NCI-H23 lung) was over 100 µM, the TGI (NCI-H460 lung) was over 100 µM and the TGI (NCI-H522 lung) was over 100 µM. For the same molecule, the TGI (OVCAR-3 ovarian) was over 100 µM, the TGI (OVCAR-4 ovarian) was over 100 µM and the TGI (OVCAR-5 ovarian) was over 100 µM. For the same molecule, the TGI (OVCAR-8 ovarian) was over 100 µM, the TGI (SF-268 CNS) was over 100 µM and the TGI (SF-295 CNS) was over 100 µM. It also gave a TGI (SF-539 CNS) of over 100 µM, a TGI (SK-MEL-2 melanoma) of over 100 µM and a TGI (SK-MEL-28 melanoma) of over 100 µM. For the same molecule, the TGI (SK-MEL-5 melanoma) was over 100 µM, the TGI (SK-OV-3 ovarian) was over 100 µM and the TGI (SN12C renal) was over 100 µM. For the same molecule, the TGI (SNB-19 CNS) was over 100 µM, the TGI (SNB-75 CNS) was over 100 µM and the TGI (SNB-78 CNS) was over 100 µM. For the same molecule, the TGI (SR leukemia) was over 100 µM, the TGI (SW-620 colon) was over 100 µM and the TGI (TK-10 renal) was over 100 µM. For the same molecule, the TGI (U251 CNS) was over 100 µM, the TGI (UACC-257 melanoma) was over 100 µM and the TGI (UACC-62 melanoma) was over 100 µM. It also gave a TGI (UO-31 renal) of over 100 µM and a TGI (XF 498 CNS) of over 100 µM.
